# Measurements published in patent US12349708B2, “Use and methods of 1,3-propanediol to improve taste and/or off-taste qualities” (Primient Covation LLC, priority 2019, dated 2025).
# “Also recorded” adds a separate entry of the source. Where a name gives a salt, the structure may show the parent alone.
# How the values were obtained:
# [1] = test system: experienced and trained panelist; assay: Sensorial description of energy drinks and additive solutions with propylene glycol or biologically-produced 1,3-propanediol (multi-sip-and-swallow taste method); details: for Sensorial Description: RT;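 on all read-outs here: propylene glycol or 1,3-propanediol added at 0.01, 0.1 or 1.0%, tasted by multi-sip-and-swallow in duplicate, compared with matching controls lacking either additive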
# [2] = 0.05% in black tea; U.S. Pat. No. 8,685,436; cited from earlier work
smiles,measurement,setting,value
"CC(O)CO (stereo not drawn) [PG, propylene glycol, reference compound]",Sensorial Description,[1]; 0.01% PG or PDO in 238 ppm sucralose (10% SE) in distilled water,"6-7% SE, significantly less sweet"
same,Sensorial Description,[1]; 0.01% PG or PDO in 338 ppm caffeine in distilled water (caffeine drink),Looked similar to Control #72.
same,Sensorial Description,"[1]; 0.01% PG or PDO in 3,338 ppm caffeine in distilled water (caffeine shot)",(small sip): similar to Control #65.
same,Sensorial Description,"[1]; 0.01% PG or PDO in 10,500 ppm malic acid and 2,000 ppm sucralose in distilled water",Less sweetness and sourness intensities (different
same,Sensorial Description,[1]; 0.01% PG or PDO in Bang energy drink,Significantly less sweet and its lingering but still
same,Sensorial Description,[1]; 0.01% PG or PDO in Berry flavor in distilled water,"Less dry than Control #114, slight less flavor."
same,Sensorial Description,[1]; 0.01% PG or PDO in Monster Energy Zero Ultra,"Significant less off-taste, less sourness, significantly"
same,Sensorial Description,[1]; 0.01% PG or PDO in Monster Energy drink,Note: Loss of carbonation. Significantly less
same,Sensorial Description,[1]; 0.01% PG or PDO in NOS High Performance Energy Drink,"Significantly less sourness and flavor, less sweet."
same,Sensorial Description,[1]; 0.01% PG or PDO in Orange 5-hour ENERGY shot (5HE Orange),"Significantly less flavor and bitterness, still strong"
same,Sensorial Description,[1]; 0.01% PG or PDO in Red Bull Energy Drink,Much better taste quality overall significantly less
same,Sensorial Description,[1]; 0.01% PG or PDO in Red Bull Sugar Free,"Significantly less off-tastes, still different off-taste"
same,Sensorial Description,[1]; 0.01% PG or PDO in Rockstar Original energy drink,"Clearer off-flavor than sweet/sour, less sourness but"
same,reduction of sweetness and lingering at 1st half of the taste time,"[1]; 0.01% in 2,000 ppm sucralose in distilled water","lingering, ~40% less at 1st half of the taste time,"
same,Sensorial Description,[1]; 0.1% PG or PDO in 238 ppm sucralose (10% SE) in distilled water,"~5-6% SE, slightly less sweetness"
same,Sensorial Description,"[1]; 0.1% PG or PDO in 2,000 ppm sucralose in distilled water",(small sip): Less overall sweet quality including 2nd
same,Sensorial Description,"[1]; 0.1% PG or PDO in 3,338 ppm caffeine in distilled water (caffeine shot)",(small sip): similar to Control #65.
same,Sensorial Description,[1]; 0.1% PG or PDO in Berry 5-hour ENERGY shot (5HE Berry),Significantly less sweet and aftertaste and sweet
same,Sensorial Description,[1]; 0.1% PG or PDO in Berry flavor in distilled water,"Less dry than 0.01% PG, slight less flavor."
same,Sensorial Description,[1]; 0.1% PG or PDO in Monster Energy Zero Ultra,"More smooth tasting quality, less sourness, no bitter,"
same,Sensorial Description,[1]; 0.1% PG or PDO in Monster Energy drink,Note: Loss of carbonation. Similar carbonic acid off-
same,Sensorial Description,[1]; 0.1% PG or PDO in NOS High Performance Energy Drink,"No bitterness, smoother, still flavor and sweet, less"
same,Sensorial Description,[1]; 0.1% PG or PDO in Orange 5-hour ENERGY shot (5HE Orange),"Less flavor, no bitterness, still strong sourness but less"
same,Sensorial Description,[1]; 0.1% PG or PDO in Red Bull Energy Drink,"Note: Loss of carbonation. Medium flavor level, less"
same,Sensorial Description,[1]; 0.1% PG or PDO in Red Bull Sugar Free,"Flatter, smoothness, still different off-taste as 0.01%"
same,reduction of overall sweet quality,"[1]; 0.1% in 2,000 ppm sucralose in distilled water","half of tasting time, ~10-20% less than 0.01% PG,"
same,Sensorial Description,[1]; 1.0% PG or PDO in 79 ppm sucralose (5% SE) in distilled water,"Weak PG taste note, similar sweet quality."
same,Sensorial Description,[1]; 1.0% PG or PDO in 238 ppm sucralose (10% SE) in distilled water,"Slight PG taste, sweet smoother"
same,Sensorial Description,[1]; 1.0% PG or PDO in 338 ppm caffeine in distilled water (caffeine drink),"Worst quality, more bitterness, medium intensity,"
same,Sensorial Description,"[1]; 1.0% PG or PDO in 2,000 ppm sucralose in distilled water",(small sip): Similar to 0.1% PG. Repeated tests
same,Sensorial Description,"[1]; 1.0% PG or PDO in 3,338 ppm caffeine in distilled water (caffeine shot)","(small sip): similar to Control #65, no PG taste"
same,Sensorial Description,"[1]; 1.0% PG or PDO in 10,500 ppm malic acid and 2,000 ppm sucralose in distilled water","PF taste note, similar qualities as 0.1% PG."
same,Sensorial Description,"[1]; 1.0% PG or PDO in 10,500 ppm malic acid, 2,000 ppm sucralose, 3,338 ppm caffeine in distilled water","Stronger, thinner sourness quality."
same,Sensorial Description,[1]; 1.0% PG or PDO in B vitamins at 5-hour Energy shot concentrations in distilled water,"PG flavor taste, similar other qualities as Control"
same,Sensorial Description,[1]; 1.0% PG or PDO in Berry 5-hour ENERGY shot (5HE Berry),"Began to show more sourness across the taste, still"
same,Sensorial Description,[1]; 1.0% PG or PDO in Berry flavor in distilled water,"Less dry than Control #114, slight less flavor."
same,Sensorial Description,[1]; 1.0% PG or PDO in Monster Energy Zero Ultra,"Very smooth, flat tasting quality of basic tastes, no"
same,Sensorial Description,[1]; 1.0% PG or PDO in Monster Energy drink,"Note: Little carbonation. Little or no sourness, very"
same,Sensorial Description,[1]; 1.0% PG or PDO in NOS High Performance Energy Drink,"Smoother than 0.1% PG, low-medium flavor, low"
same,Sensorial Description,[1]; 1.0% PG or PDO in Orange 5-hour ENERGY shot (5HE Orange),"Less flavor, sourness and sweetness, still moderate"
same,Sensorial Description,[1]; 1.0% PG or PDO in Red Bull Energy Drink,Note: significantly less or no carbonation. Low
same,Sensorial Description,[1]; 1.0% PG or PDO in Red Bull Sugar Free,Medium off-flavor (not described) in middle tasting
same,Sensorial Description,[1]; 1.0% PG or PDO in Rockstar Original energy drink,"Slight off-flavor (seems like PDO's off flavor), little"
same,reduction in unpleasant taste or masking of off-taste,"[1]; 2,000 ppm, 238 ppm, or 70 ppm sucralose in distilled water","No reduction in unpleasant taste, or masking of off-taste"
same,reduction of unpleasant taste / masking of bitterness,"[1]; 3,382 ppm or 338 ppm caffeine in distilled water","did not reduce the unpleasant taste, or mask the bitterness"
same,taste modulation of B vitamins,[1]; aqueous B vitamins at concentrations comparable to 5-hour ENERGY shots,did not positively modulate
same,modulation of berry flavor,[1]; berry flavor in distilled water,"Neither biologically-produced 1,3-propanediol, nor propylene glycol modulated the flavor"
same,taste modulation or sour masking,"[1]; malic acid at 10,500 ppm in distilled water",no positive taste modulation or sour masking effect
same,taste modulation of single additive solutions,"[1]; separate caffeine, malic acid, and sucralose solutions at mega-dose levels","did not positively modulate the taste or mask the bitter, off, or sour tastes; also recorded: neither propylene glycol, nor biologically-produced 1,3-propanediol modulated the taste"
COc1cc([C@@H]2CC(=O)c3c(O)cc(O)cc3O2)ccc1O [homoeriodictyol disodium salt],perceived bitterness,[2],reduced the perceived bitterness
O=C(O)CC(O)C(=O)O (stereo not drawn) [malic acid],Sensorial Description,"[1]; control: 10,500 ppm malic acid in distilled water, no PG or PDO","Extreme sourness, clean sourness quality, slightly dry"
OC[C@H]1O[C@H](O[C@]2(CCl)O[C@H](CCl)[C@@H](O)[C@@H]2O)[C@H](O)[C@@H](O)[C@H]1Cl [sucralose],Sensorial Description,"[1]; control: 79 ppm sucralose in distilled water, no PG or PDO","Comfortably 5% SE sweet, good sweet quality"
same,Sensorial Description,"[1]; control: 238 ppm sucralose in distilled water, no PG or PDO","10% SE, delayed onset of sweetness, very sweet"
same,Sensorial Description,"[1]; control: 2,000 ppm sucralose in distilled water, no PG or PDO","(small sip): Extremely sweet, extremely strong sweet"
